Assay results as given in US4923697A, “Antioxidant compositions and methods” (Bar-Ilan University, priority 1986, dated 1990).

Tested on: skin of adult mice
Assay: TBA test of peroxide level in skin of adult shaved mice
Type: in vivo, mouse
Details: 0.1% in Oil of Olay
Text: Samples of creams and appropriate controls were applied to mice or rat skin for a fixed period. The application was done once a day. Experiments were terminated by killing the animal, peeling the skin and freezing it in liquid nitrogen. Samples of the frozen skin were homogenized in 0.2.M phosphate buffer, pH 6.5. After centrifugation, the supernatant was collected and analyzed for the peroxide value using the TBA (thiobarbituric acid) test as described by Sinnhuber et. al, Food Res. 23: 620 (1958).
In these experiments adult mice (2 months old) were treated as described in Example 2. The grown mice were shaved before applying the creams to the skin. In this experiment the antioxidant was dissolved in Oil of Olay. Mice were sacrificed after 21 days.

Row | Compound | reduction of the level of peroxides in the skin
1 | COc1ccc(O)c(C(C)(C)C)c1 [BHA, butylated hydroxy anisole] | no reduction of the level of peroxides was observed
2 | Cc1c(C)c2c(c(C)c1O)CCC(C)(CCCC(C)CCCC(C)CCCC(C)C)O2 (stereo not drawn) [alpha tocopherol, alpha-tocopherol] | no reduction of the level of peroxides was observed
3 | Cc1cc(C(C)(C)C)c(O)c(C(C)(C)C)c1 [BHT, butylated hydroxy toluene] | no reduction of the level of peroxides was observed
